Assay results: paper PMC6271978, “1H-2,3-Dihydroperimidine Derivatives: A New Class of Potent Protein Tyrosine Phosphatase 1B Inhibitors” (Molecules, 2013)

Experiments:
PTP1B (GST-PTP1B) = target: T1, PTP1B (GST-PTP1B) (Homo sapiens, UniProt P18031); assay: PTP1B inhibition, colorimetric pNPP assay; format: biochemical; settings: for inhibition at 20 µg/mL: PTP1B, compound at 20 μg/mL; for inhibition at 20 µg/mL / IC50: pNPP substrate; for IC50: means ± SD of three replications, OA/PC = oleanolic acid positive control; for PTP1B inhibitory activity (in words): pNPP assay, tested at 20 μg/mL
T1 sequence (P18031 1-435): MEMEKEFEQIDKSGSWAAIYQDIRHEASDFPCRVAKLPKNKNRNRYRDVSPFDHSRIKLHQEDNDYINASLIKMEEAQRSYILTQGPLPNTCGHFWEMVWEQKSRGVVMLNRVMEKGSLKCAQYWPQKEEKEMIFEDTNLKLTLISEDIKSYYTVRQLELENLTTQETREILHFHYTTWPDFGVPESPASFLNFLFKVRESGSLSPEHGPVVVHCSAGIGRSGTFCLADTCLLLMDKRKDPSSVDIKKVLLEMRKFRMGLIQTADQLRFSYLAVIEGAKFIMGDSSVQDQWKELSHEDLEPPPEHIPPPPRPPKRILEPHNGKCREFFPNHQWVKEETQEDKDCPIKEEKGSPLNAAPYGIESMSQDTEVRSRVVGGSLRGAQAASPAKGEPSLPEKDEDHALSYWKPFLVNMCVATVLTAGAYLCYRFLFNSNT

Row | inhibition at 20 µg/mL (PTP1B (GST-PTP1B)) | melting point | IC50 (PTP1B (GST-PTP1B)) | PTP1B inhibitory activity (in words) (PTP1B (GST-PTP1B)) | SMILES
1 | 37% | – | – | – | Brc1ccc(C2Nc3cccc4cccc(c34)N2)cc1 [Compound 2]
2 | 42.5% | 161.7 to 163.3 °C | – | – | Brc1cccc(C2Nc3cccc4cccc(c34)N2)c1 [Compound 3, 2-(3-Bromophenyl)-2,3-dihydro-1H-perimidine]
3 | 17.5% | – | – | – | Brc1ccccc1C1Nc2cccc3cccc(c23)N1 [Compound 4, 2-(2-Bromophenyl)-2,3-dihydro-1H-perimidine]
4 | 7.18% | – | – | – | Oc1ccc(C2Nc3cccc4cccc(c34)N2)cc1 [Compound 5, 4-(2,3-Dihydro-1H-perimidin-2-yl)phenol]
5 | 31.6% | 204.4 to 208.4 °C | – | – | N#Cc1cc(C2Nc3cccc4cccc(c34)N2)ccc1F [Compound 6, 5-(2,3-Dihydro-1H-perimidin-2-yl)-2-fluorobenzonitrile]
6 | 23.8% | 166.4 to 171.9 °C | – | – | Nc1ccc(C2Nc3cccc4cccc(c34)N2)cc1 [Compound 8]
7 | 15.3% | – | – | – | COC(=O)c1ccc(C2Nc3cccc4cccc(c34)N2)cc1 [Compound 9]
8 | 26.2% | 171.3 to 176 °C | – | – | COC(=O)C1CCCN1C(=O)c1ccc(C2Nc3cccc4cccc(c34)N2)cc1 (stereo not shown) [Compound 10, Methyl 1-(4-(2,3-dihydro-1H-perimidin-2-yl)benzoyl)pyrrolidine-2-carboxylate]
9 | 4.81% | 193.3 to 198.7 °C | – | – | COC(=O)CNC(=O)c1ccc(C2Nc3cccc4cccc(c34)N2)cc1 [Compound 11]
10 | 6.83% | 128.6 to 132.5 °C | – | – | CCOC(=O)CCCNC(=O)c1ccc(C2Nc3cccc4cccc(c34)N2)cc1 [Compound 12, Ethyl 4-(4-(2,3-dihydro-1H-perimidin-2-yl)benzamido)butanoate]
11 | 28.5% | 141.8 to 143.1 °C | – | – | CCOC(=O)CCCCNC(=O)c1ccc(C2Nc3cccc4cccc(c34)N2)cc1 [Compound 13, Ethyl 5-(4-(2,3-dihydro-1H-perimidin-2-yl)benzamido)pentanoate]
12 | 35.6% | 145.8 to 147.4 °C | – | – | CCOC(=O)CCCCCNC(=O)c1ccc(C2Nc3cccc4cccc(c34)N2)cc1 [Compound 14, Ethyl 6-(4-(2,3-dihydro-1H-perimidin-2-yl)benzamido)hexanoate]
13 | 84.2% | 233.1 to 234.3 °C | 20.2 ± 1.94 µM | – | O=C(O)C1CCCN1C(=O)c1ccc(C2Nc3cccc4cccc(c34)N2)cc1 (stereo not shown) [Compound 15, 1-(4-(2,3-Dihydro-1H-perimidin-2-yl)benzoyl)pyrrolidine-2-carboxylic acid]
14 | 90% | 85.4 to 90.3 °C | 27.8 ± 5.45 µM | – | O=C(O)CNC(=O)c1ccc(C2Nc3cccc4cccc(c34)N2)cc1 [Compound 16]
15 | 73.1% | 99.7 to 103.3 °C | 22.2 ± 1.6 µM | – | O=C(O)CCCNC(=O)c1ccc(C2Nc3cccc4cccc(c34)N2)cc1 [Compound 17, 4-(4-(2,3-Dihydro-1H-perimidin-2-yl)benzamido)butanoic acid]
16 | 94.8% | 102.8 to 107.4 °C | 5.53 ± 0.54 µM | – | O=C(O)CCCCNC(=O)c1ccc(C2Nc3cccc4cccc(c34)N2)cc1 [Compound 18, 5-(4-(2,3-Dihydro-1H-perimidin-2-yl)benzamido)pentanoic acid]
17 | 95.3% | 90.8 to 91.9 °C | 7.82 ± 0.27 µM | – | O=C(O)CCCCCNC(=O)c1ccc(C2Nc3cccc4cccc(c34)N2)cc1 [Compound 19, 6-(4-(2,3-Dihydro-1H-perimidin-2-yl)benzamido)hexanoic acid]
18 | 7.45% | 76.2 to 78.6 °C | – | did not show inhibitory activity | CCOC(=O)CCCOc1ccc(C2Nc3cccc4cccc(c34)N2)cc1 [Compound 21]
19 | 2.04% | 93.8 to 96.4 °C | – | did not show inhibitory activity | CCOC(=O)CCCCOc1ccc(C2Nc3cccc4cccc(c34)N2)cc1 [Compound 22, Ethyl 5-[4-(2,3-dihydro-1H-perimidin-2-yl)phenoxy]pentanoate]
20 | 98.4% | > 265 °C | 5.88 ± 0.25 µM | – | O=C(O)COc1ccc(C2Nc3cccc4cccc(c34)N2)cc1 [Compound 23, 2-[4-(2,3-Dihydro-1H-perimidin-2-yl)phenoxy]acetic acid]

Row | inhibition at 20 µg/mL (PTP1B (GST-PTP1B)) | melting point | IC50 (PTP1B (GST-PTP1B)) | PTP1B inhibitory activity (in words) (PTP1B (GST-PTP1B)) | SMILES
21 | 10.5% | 126.3 to 130.9 °C | – | no inhibitory activity | O=C(O)CCCOc1ccc(C2Nc3cccc4cccc(c34)N2)cc1 [Compound 24]
22 | 32.1% | 165.9 to 167.8 °C | – | no inhibitory activity | O=C(O)CCCCOc1ccc(C2Nc3cccc4cccc(c34)N2)cc1 [Compound 25, 5-[4-(2,3-Dihydro-1H-perimidin-2-yl)phenoxy]pentanoic acid]
23 | 91.8% | 132.3 to 135.5 °C | 1.27 ± 0.06 µM | – | CCOC(=O)C(=O)Nc1ccc(C2Nc3cccc4cccc(c34)N2)cc1 [Compound 26, Ethyl 2-{[4-(2,3-dihydro-1H-perimidin-2-yl)phenyl]amino}-2-oxoacetate]
24 | 1.68% | 158.2 to 160.7 °C | – | – | CCOC(=O)CC(=O)Nc1ccc(C2Nc3cccc4cccc(c34)N2)cc1 [Compound 27, Ethyl 3-{[4-(2,3-dihydro-1H-perimidin-2-yl)phenyl]amino}-3-oxopropanoate]
25 | 29.7% | 165.8 to 170.9 °C | – | – | CCOC(=O)CCC(=O)Nc1ccc(C2Nc3cccc4cccc(c34)N2)cc1 [Compound 28]
26 | 2.92% | 139.9 to 142.5 °C | – | – | CCOC(=O)CCCC(=O)Nc1ccc(C2Nc3cccc4cccc(c34)N2)cc1 [Compound 29, Ethyl 5-{[4-(2,3-dihydro-1H-perimidin-2-yl]phenyl)amino}-5-oxopentanoate]
27 | 0.51% | > 265 °C | – | no activity | O=C(O)C(=O)Nc1ccc(C2Nc3cccc4cccc(c34)N2)cc1 [Compound 30, 2-{[4-(2,3-Dihydro-1H-perimidin-2-yl)phenyl]amino}-2-oxoacetic acid]
28 | 96.8% | 221.3 to 223.4 °C | 6.45 ± 0.42 µM | – | O=C(O)CC(=O)Nc1ccc(C2Nc3cccc4cccc(c34)N2)cc1 [Compound 31, 3-{[4-(2,3-Dihydro-1H-perimidin-2-yl)phenyl]amino}-3-oxopropanoic acid]
29 | 29.9% | – | – | no activity | O=C(O)CCC(=O)Nc1ccc(C2Nc3cccc4cccc(c34)N2)cc1 [Compound 32]
30 | 95.1% | > 265 °C | 6.91 ± 1.17 µM | – | O=C(O)CCCC(=O)Nc1ccc(C2Nc3cccc4cccc(c34)N2)cc1 [Compound 33, 5-{[4-(2,3-Dihydro-1H-perimidin-2-yl)phenyl]amino}-5-oxopentanoic acid]
31 | 12.6% | 111.1 to 113.7 °C | – | no inhibitory activity | CC(C)(C)OC(=O)NCCC(=O)Nc1ccc(C2Nc3cccc4cccc(c34)N2)cc1 [Compound 34]
32 | 0.29% | 239.7 to 241.2 °C | – | no inhibitory activity | NCCC(=O)Nc1ccc(C2Nc3cccc4cccc(c34)N2)cc1 [Compound 35]
33 | 6.4% | – | – | – | COC(=O)c1ccc(C2Nc3cccc4cccc(c34)N2)nc1 [Compound 40]
34 | 96.6% | 100.7 to 101.3 °C | 10.8 ± 0.69 µM | – | O=C(O)c1ccc(C2Nc3cccc4cccc(c34)N2)nc1 [Compound 41]
35 | 42.1% | 183.6 to 184.7 °C | – | – | COC(=O)CNC(=O)c1ccc(C2Nc3cccc4cccc(c34)N2)nc1 [Compound 42]
36 | 4.67% | 100.1 to 105.4 °C | – | – | COC(=O)CCCNC(=O)c1ccc(C2Nc3cccc4cccc(c34)N2)nc1 [Compound 43, Methyl 4-[6-(2,3-dihydro-1H-perimidin-2-yl)nicotinamido]butanoate]
37 | 4.74% | 109.4 to 113.5 °C | – | – | CCOC(=O)CCCCNC(=O)c1ccc(C2Nc3cccc4cccc(c34)N2)nc1 [Compound 44, Ethyl 5-[6-(2,3-dihydro-1H-perimidin-2-yl)nicotinamido]pentanoate]
38 | 10.8% | 119.3 to 123.8 °C | – | – | CCOC(=O)CCCCCNC(=O)c1ccc(C2Nc3cccc4cccc(c34)N2)nc1 [Compound 45, Ethyl 6-[6-(2,3-dihydro-1H-perimidin-2-yl)nicotinamido]hexanoate]
39 | 98.5% | 95.3 to 99 °C | 15.2 ± 1.41 µM | – | O=C(O)CCCNC(=O)c1ccc(C2Nc3cccc4cccc(c34)N2)nc1 [Compound 47, 4-[6-(2,3-Dihydro-1H-perimidin-2-yl)nicotinamido]butanoic acid]
40 | 91.5% | 117.1 to 120.3 °C | 3.56 ± 0.13 µM | – | O=C(O)CCCCNC(=O)c1ccc(C2Nc3cccc4cccc(c34)N2)nc1 [Compound 48, 5-[6-(2,3-Dihydro-1H-perimidin-2-yl)nicotinamido]pentanoic acid]
